Consider 100 compounds from ChEMBL document CHEMBL3507680, “University of Dundee, Gates Library screen for HepG2 cell viability”.

The data set can be described thus: Human HepG2 cell viability assay in 384 well format. The class given is toxicity, cell-based. Further details: dose 125 nL, time 70.5 hour; cytotoxicity at 70.5 h: concentration not given beside the values. The note with it: HepG2 cells, read-out: Inhibition.
Regarding `O=C(c1ccc(Br)o1)N1CCN(Cc2ccc(F)cc2)CC1`, the cytotoxicity at 70.5 h is 7.95%.

`CN(C)C(=O)c1cccc(NC(=O)c2cnn(C)c2)c1`: the cytotoxicity at 70.5 h is -4.77%.

Turning to `CC(C)c1nc2n(n1)CC(NCc1nnc(C(C)C)o1)CC2` (stereo not given), the cytotoxicity at 70.5 h was -19.6%.

`Cc1nc(CCNC(=O)NC2CCCc3c2cnn3CCO)cs1` (stereo not given): the cytotoxicity at 70.5 h was -9.35%.

As to `O=C1NCCCc2[nH]c(Cc3ccc(F)cc3)nc21`, the cytotoxicity at 70.5 h was -6%.

Consider `CC(C)c1nnc2n1CC(CNCc1nc3ccccc3s1)CC2` (stereo not given), for which the cytotoxicity at 70.5 h was found to be 21.9%.

As for `CC(C)N1CC[C@H](c2nnc(Cc3c[nH]c4ccccc34)o2)C1`, the cytotoxicity at 70.5 h is -4.41%.

Turning to `CNC(=O)C1CCCCN1C(=O)c1csc(-c2ccccc2)n1` (stereo not given), the cytotoxicity at 70.5 h was -9.17%.

As for `CN(CC(=O)NS(=O)(=O)c1ccc(F)cc1)Cc1ccccc1`, the cytotoxicity at 70.5 h was -3.97%.

Turning to `CCN1CCn2c(C)cnc2C12CCN(C(=O)c1ccc(Cl)cc1)CC2`, the cytotoxicity at 70.5 h was -11.3%.

`CNC(=O)CNC1CC2(CCN(c3ncccn3)CC2)c2ccccc21` (stereo not given): the cytotoxicity at 70.5 h is -9.1%.

Regarding `Cc1ccc(C(NC(=O)CCCN2CCCCC2)C(=O)O)cc1` (stereo not given), the cytotoxicity at 70.5 h was -12.7%.

Turning to `CC(=O)N1CCOCC2(C1)CN(S(C)(=O)=O)CCO2` (stereo not given), the cytotoxicity at 70.5 h is -9.18%.

On to `COCCN1C(=O)CCC12CCN(C(=O)CC1CC1)CC2`, for which the cytotoxicity at 70.5 h was determined as 35.3%.

As for `COC(=O)Cn1ccc(NS(=O)(=O)c2ccc3c(c2)CCC3)n1`, the cytotoxicity at 70.5 h is 17%.

`Cc1noc(C)c1S(=O)(=O)N(C)Cc1nn(C)c(Cl)c1Cl`: the cytotoxicity at 70.5 h stood at 24.3%.

Take `COCC(=O)N1CC[C@@H]2O[C@@H](C)C[C@H]2C1`: the cytotoxicity at 70.5 h is -12.2%.

On to `Cc1csc(CNC(=O)N(C)Cc2ccncc2)n1`, for which the cytotoxicity at 70.5 h is -0.603%.

As to `CCc1nc(C2CCCN2C(=O)c2ccc3c(c2)COC3)no1` (stereo not given), the cytotoxicity at 70.5 h is -2.9%.

Turning to `CCCn1cnnc1CNC(=O)CC1C(=O)NCCN1C(C)C` (stereo not given), the cytotoxicity at 70.5 h stood at 10.7%.

In the case of `Nc1cc(C(=O)N2CCCC3(C=Cc4ccccc4O3)CC2)ccn1` (stereo not given), the cytotoxicity at 70.5 h was -4.49%.

With `CSCCCN1CC[C@@H](NC(=O)c2cnccn2)[C@H](O)C1`, the cytotoxicity at 70.5 h is -10.8%.

For the compound `O=C(CNCCn1cccn1)NCC1(c2ccccc2)CCCC1`, the cytotoxicity at 70.5 h worked out at 0.609%.

`COCc1nc(C(=O)NS(=O)(=O)c2ccc(C)c(C)c2)cs1`: the cytotoxicity at 70.5 h stood at 25.8%.

Take `CN(CC(F)(F)F)C(=O)COc1nc(Cc2ccc(F)cc2)no1`: the cytotoxicity at 70.5 h is -7.01%.

As for `CCc1cnc(NC(=O)NC2CCN(C)CC2)s1`, the cytotoxicity at 70.5 h was 10.3%.

`O=C(c1ccc(N2CCCCCC2)nn1)N1CCc2ccccc21`: the cytotoxicity at 70.5 h is -3.2%.

Consider `c1cnn(Cc2cnc3n2CCN(CC2CCCCC2)C3)c1`, for which the cytotoxicity at 70.5 h was -6.48%.

In the case of `CCn1c(C2CCCN(Cc3nccn3CCOC)C2)nn(C)c1=O` (stereo not given), the cytotoxicity at 70.5 h is -11.9%.

As for `CCn1c(CN2CCN(C(=O)C3CCC3)CC2)nc2c(F)cccc21`, the cytotoxicity at 70.5 h was 1.75%.

In the case of `CCOc1ccc2ccccc2c1CNCC1CCS(=O)(=O)C1` (stereo not given), the cytotoxicity at 70.5 h was -3.67%.

With `COC(=O)c1ccc(N2CCC(N(C)c3ccccc3)CC2)nn1`, the cytotoxicity at 70.5 h was 3.35%.

In the case of `O=C(CC1CCC1)N1CCCC(CO)(CC2CC2)C1` (stereo not given), the cytotoxicity at 70.5 h was -7.78%.

On to `CS(=O)(=O)N1CC2(CCN(C(=O)c3csnn3)CC2)c2ccccc21`, for which the cytotoxicity at 70.5 h is -4.79%.

Turning to `CCS(=O)(=O)CCNCc1cc(O)c2cc(C)cc(C)c2n1`, the cytotoxicity at 70.5 h stood at 0.215%.

Consider `Cc1cc(C)cc(-n2ncc3c2CCCC3N)c1` (stereo not given), for which the cytotoxicity at 70.5 h is -5.06%.

`Nc1ncncc1-c1noc([C@@H]2CCCN2CC2CC2)n1`: the cytotoxicity at 70.5 h amounted to 9.61%.

Take `O=C1COC2(COCCN(Cc3cccnc3)C2)CN1c1ccccc1` (stereo not given): the cytotoxicity at 70.5 h was -0.932%.

For `CSCCc1n[nH]c2c1CN(S(=O)(=O)c1cn(C)c(C)n1)CC2`, the cytotoxicity at 70.5 h is -4.85%.

As for `Cc1c(C)n2c(SCC(=O)N3CCCCCC3)nnc2[nH]c1=O`, the cytotoxicity at 70.5 h was -7.58%.

As to `O=C(O)C(c1ccc2[nH]ccc2c1)N1CCOCC1` (stereo not given), the cytotoxicity at 70.5 h worked out at 9.07%.

`Cn1cnn(Cc2ccccc2F)c1=O`: the cytotoxicity at 70.5 h amounted to 2.33%.

Take `O=C(c1cn[nH]c1)N1CCC2(CCCN(Cc3ccc(F)c(F)c3)C2)C1` (stereo not given): the cytotoxicity at 70.5 h was -8.34%.

With `Cc1cnn(CC2CCCN2CC(=O)Nc2cc(C)no2)c1` (stereo not given), the cytotoxicity at 70.5 h is -3.79%.

As for `CC(C)CCCC1CN(C(=O)c2cnc[nH]2)CCO1` (stereo not given), the cytotoxicity at 70.5 h is -11.4%.

Consider `CCOC(C)c1nc(CN2CCN(CC(F)F)CC2)cs1` (stereo not given), for which the cytotoxicity at 70.5 h was -5.97%.

Regarding `c1cn(Cc2ccc(N3CCCN(C4CCCC4)CC3)nc2)cn1`, the cytotoxicity at 70.5 h is 38.7%.

For `CC(Cc1ccccn1)N(C)Cc1ccc2c(c1)CCO2` (stereo not given), the cytotoxicity at 70.5 h was -8.85%.

Regarding `COCCc1noc(-c2ccc(-c3ccc(N)nc3)nc2)n1`, the cytotoxicity at 70.5 h is -2.31%.

Turning to `Cc1cc(C2CCCN2C(=O)NCc2ccccn2)on1` (stereo not given), the cytotoxicity at 70.5 h was -16.2%.

As for `Fc1ccc(-c2nnc(CNC3CCc4ncnn4C3)o2)cc1` (stereo not given), the cytotoxicity at 70.5 h is -12.1%.

Take `Cc1ccc(NC(=O)N2CCCC2)c(OCC2CCCO2)c1` (stereo not given): the cytotoxicity at 70.5 h was -16.8%.

Consider `COc1cccc(CN2CC(O)CN(C(=O)C3CC3)CC2=O)c1OC` (stereo not given), for which the cytotoxicity at 70.5 h turned out to be 4.25%.

Turning to `CC(C)(C)c1csc(C2CCCCN2C(=O)CCn2cncn2)n1` (stereo not given), the cytotoxicity at 70.5 h was -5.87%.

Consider `O=C(C1CCOCC1)N1C[C@H]2C[C@H](OCc3ccccc3)C[C@H]2C1`, for which the cytotoxicity at 70.5 h is -3.41%.

As for `c1ccc(-c2nc(CN3CCCC3Cn3cccn3)no2)cc1` (stereo not given), the cytotoxicity at 70.5 h was found to be 1.06%.

Take `Cc1nc(CNC(=O)N(CCCO)C2CCc3ccccc32)oc1C` (stereo not given): the cytotoxicity at 70.5 h was -1.03%.

For `CCN(Cc1cnn(CC)c1)C(=O)Cn1c(=O)ccc2ccccc21`, the cytotoxicity at 70.5 h is -5.92%.

Regarding `CCOC(=O)CN(C)Cc1cnc(C)s1`, the cytotoxicity at 70.5 h is 7.03%.

On to `Cc1cccc(OCC2CCCN(C(=O)CN(C)C3CCNCC3)C2)c1` (stereo not given), for which the cytotoxicity at 70.5 h turned out to be 11.3%.

For `CNC(=O)C(C)(C)NC(=O)c1cc(COc2cccc(C(C)=O)c2)[nH]n1`, the cytotoxicity at 70.5 h was -6.29%.

Turning to `Cc1ccc([C@@H]2CN(S(=O)(=O)N3CCC(C)CC3)C[C@H]2N(C)C)cc1`, the cytotoxicity at 70.5 h is -12.1%.

With `O=C(CN1CCCS(=O)(=O)CC1)NCc1ccccc1F`, the cytotoxicity at 70.5 h is -8.4%.

Regarding `COc1ccc(C(N)=O)cc1NCc1ncc(-c2cccs2)o1`, the cytotoxicity at 70.5 h was -14%.

Consider `COC(=O)Nc1cccc(C(=O)N(C)Cc2cccc(O)c2)c1`, for which the cytotoxicity at 70.5 h is -6.41%.

For the compound `Cc1nc(-c2ccccc2)n(CC(=O)NC(C)(C)C)n1`, the cytotoxicity at 70.5 h was found to be 1.44%.

For `CCOc1ccc(NC(=O)NC2CCc3nc(C)nn3C2)cc1Cl` (stereo not given), the cytotoxicity at 70.5 h is -2.45%.

With `Cc1nc(CN2CCc3ncnc(-c4ccccc4)c3CC2)cs1`, the cytotoxicity at 70.5 h is -9.56%.

For `Cc1ccc(C)c2c(O)cc(CNCCNC(=O)C(C)C)nc12`, the cytotoxicity at 70.5 h was -6.05%.

As for `COc1cc(CCC(=O)N2CCC(c3cc4ncc(C)nc4[nH]3)C2)on1` (stereo not given), the cytotoxicity at 70.5 h is 19.5%.

Consider `Cc1nn(CN(Cc2ccsc2)C2CC2)c(=O)c2noc(C)c12`, for which the cytotoxicity at 70.5 h is -8.61%.

In the case of `CC(Cn1cncn1)NC(=O)c1cn(Cc2ccccc2F)nn1` (stereo not given), the cytotoxicity at 70.5 h was found to be 0.213%.

Turning to `CCc1noc(C2CCCCN2C(=O)c2nnc3ccccc3n2)n1` (stereo not given), the cytotoxicity at 70.5 h stood at 17.3%.

As to `NC(=O)[C@@H]1Cc2ccccc2CN1CCc1cccs1`, the cytotoxicity at 70.5 h was -10%.

In the case of `CO[C@@H]1CN(c2ccccc2)S(=O)(=O)[C@@]12CCN(C(=O)N(C)C)C2`, the cytotoxicity at 70.5 h was -5.12%.

On to `CCn1ccc2cc(NC(=O)CC3CCCO3)ccc21` (stereo not given), for which the cytotoxicity at 70.5 h is -6.31%.

As to `CCO[C@H]1CN(C)C[C@@H]1NC(=O)c1cc(C)nc2c(C)c(C)ccc12`, the cytotoxicity at 70.5 h is -6.51%.

Regarding `CCOC[C@@]12CCC[C@@H]1CN(C(=O)c1ccc(OC)cc1)C2`, the cytotoxicity at 70.5 h came to 4.26%.

`N#Cc1ccc(S(=O)(=O)NC(=O)c2ccc3c(c2)COC3)cc1`: the cytotoxicity at 70.5 h is -4.81%.

`Cc1cc(C(F)(F)F)nn1CC(C)C(=O)NC(C)C` (stereo not given): the cytotoxicity at 70.5 h was determined as 19.9%.

For the compound `CC(C)S(=O)(=O)NCC1CCCN(C(=O)c2ccc(Cl)cc2)C1` (stereo not given), the cytotoxicity at 70.5 h amounted to 6.86%.

For the compound `CC(C)=Cc1c(-c2ccccc2)ncn1CCN(C)S(C)(=O)=O`, the cytotoxicity at 70.5 h is 0.261%.

`CN1CCc2cc(C(=O)N(C)C)c(NCC3CC3)nc2CC1`: the cytotoxicity at 70.5 h was -1.63%.

Regarding `Cc1nc(C)c(CN2CCC(N(C)Cc3noc(C4CC4)n3)C2)s1` (stereo not given), the cytotoxicity at 70.5 h came to 21.6%.

With `CNC(=O)c1sccc1N(C)S(=O)(=O)c1ccc(Cl)cc1`, the cytotoxicity at 70.5 h was 19.5%.

As to `Cc1ccc(CC(=O)N2CCC(c3nnc4n3CCC4)CC2)cc1`, the cytotoxicity at 70.5 h is -8.21%.

Regarding `CN(Cc1ncc(C(C)(C)C)o1)C1CCCN(c2cccnn2)C1` (stereo not given), the cytotoxicity at 70.5 h is -11.9%.

In the case of `O=C(CCn1cc(Cl)cn1)Nc1nncs1`, the cytotoxicity at 70.5 h came to 15.8%.

Take `COCCN(Cc1ccc(F)cc1Cl)C(=O)c1cc[n+]([O-])cc1`: the cytotoxicity at 70.5 h worked out at 17.1%.

On to `Cc1ccc(-c2nnc(CN3CC(n4cc(C)cn4)C3)o2)cc1`, for which the cytotoxicity at 70.5 h was -13.9%.

As to `COc1ccc(CNC(=O)CCn2cc(C)cn2)cc1C`, the cytotoxicity at 70.5 h was found to be 26.7%.

Take `CCc1ccc(OCCN(C)C(=O)c2ccncc2Cl)cc1`: the cytotoxicity at 70.5 h was -5.33%.

Turning to `CCn1ccnc1CN1CCN(CC(=O)NC(C2CC2)C2CC2)CC1`, the cytotoxicity at 70.5 h came to 16.4%.

In the case of `Cc1cccc(N(CCC(N)=O)C(=O)c2ccnc(C)n2)c1`, the cytotoxicity at 70.5 h is -13.8%.

In the case of `Cc1cc(NC(=O)N2CCCC2CN2CCOCC2)nn1C` (stereo not given), the cytotoxicity at 70.5 h was -10.1%.

Turning to `Cc1nc(CCNC(=O)NCC(O)c2cccc(Cl)c2)cs1` (stereo not given), the cytotoxicity at 70.5 h was -7.03%.

Take `Cc1cc(C(=O)Nc2cccn(Cc3ccc(F)cc3)c2=O)no1`: the cytotoxicity at 70.5 h worked out at 0.798%.

Turning to `Cc1ncsc1CN1C[C@@H]2COC[C@]2(C(=O)NCc2cccnc2)C1`, the cytotoxicity at 70.5 h is -14.8%.

As for `CN(C)C(=O)N1C[C@@H]2CC[C@H](C1)N(Cc1nnc(C3CC3)o1)C2`, the cytotoxicity at 70.5 h is -16.8%.

Regarding `Cc1nc2ccccc2nc1CN(C)C1CCCN(c2cccnn2)C1` (stereo not given), the cytotoxicity at 70.5 h was 4.32%.
